ChEMBL document CHEMBL1201862, “PubChem BioAssay data set” (2004)
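A five-concentration, 48-hour dose response in 96-well plates underlies each endpoint, interpolated linearly between surrounding concentrations. GI50 marks 50% less growth.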 Calls of active or inactive are those of the source. No stated cut-off is given here; in the data, active = GI50 up to about 1.1 µM and inactive = higher.

Tests used:
Assay in all cases: NCI tumour cell line growth inhibition, 48 h
IGROV-1 = system: IGROV-1
CCRF-CEM = system: CCRF-CEM
K562 = system: K562
U-251 = system: U-251
MDA-MB-435 = system: MDA-MB-435
OVCAR-8 = system: OVCAR-8
OVCAR-4 = system: OVCAR-4
MDA-N = system: MDA-N
ACHN = system: ACHN
SK-MEL-5 = system: SK-MEL-5
A549 = system: A549
HCT-15 = system: HCT-15
786-0 = system: 786-0
UACC-62 = system: UACC-62
SNB-75 = system: SNB-75
Malme-3M = system: Malme-3M
M14 = system: M14
NCI-H23 = system: NCI-H23
T47D = system: T47D
SR = system: SR
UACC-257 = system: UACC-257
RXF 393 = system: RXF 393
DU-145 = system: DU-145
SN12C = system: SN12C
HT-29 = system: HT-29
LOX IMVI = system: LOX IMVI
MCF7 = system: MCF7
BT-549 = system: BT-549
SF-295 = system: SF-295
SF-268 = system: SF-268
OVCAR-5 = system: OVCAR-5
MDA-MB-231 = system: MDA-MB-231
TK-10 = system: TK-10
NCI-H226 = system: NCI-H226
Hs-578T = system: Hs-578T
SNB-19 = system: SNB-19
HL-60 = system: HL-60
NCI-H460 = system: NCI-H460
COLO 205 = system: COLO 205
SK-MEL-2 = system: SK-MEL-2
SK-MEL-28 = system: SK-MEL-28
KM12 = system: KM12
HOP-92 = system: HOP-92
HCC 2998 = system: HCC 2998
OVCAR-3 = system: OVCAR-3
SW-620 = system: SW-620
UO-31 = system: UO-31
MOLT-4 = system: MOLT-4
NCI-H522 = system: NCI-H522
RPMI-8226 = system: RPMI-8226
PC-3 = system: PC-3
NCI/ADR-RES = system: NCI/ADR-RES
HCT-116 = system: HCT-116
CAKI-1 = system: CAKI-1
SK-OV-3 = system: SK-OV-3
EKVX = system: EKVX
SF-539 = system: SF-539
HOP-62 = system: HOP-62
A498 = system: A498

Measured: GI50

CN(C(=O)c1cccs1)C(=S)N1CCN(c2ccccc2)CC1
inactive: IGROV-1 > 100 µM | CCRF-CEM > 100 µM | K562 > 100 µM | U-251 > 100 µM | MDA-MB-435 > 100 µM | OVCAR-8 > 100 µM | OVCAR-4 > 100 µM | MDA-N > 100 µM | ACHN > 100 µM | SK-MEL-5 > 100 µM | A549 > 100 µM | 786-0 > 100 µM | UACC-62 > 100 µM | SNB-75 > 100 µM | Malme-3M > 100 µM | M14 > 100 µM | NCI-H23 > 100 µM | T47D > 100 µM | SR 54.2 µM | UACC-257 > 100 µM | RXF 393 > 100 µM | DU-145 > 100 µM | SN12C > 100 µM | HT-29 > 100 µM | LOX IMVI > 100 µM | MCF7 > 100 µM | BT-549 > 100 µM | SF-295 > 100 µM | SF-268 > 100 µM | OVCAR-5 > 100 µM | MDA-MB-231 > 100 µM | TK-10 > 100 µM | NCI-H226 > 100 µM | Hs-578T 42.7 µM | SNB-19 > 100 µM | HL-60 68.5 µM | NCI-H460 > 100 µM | COLO 205 > 100 µM | SK-MEL-2 > 100 µM | SK-MEL-28 > 100 µM | KM12 > 100 µM | HOP-92 91.8 µM | HCC 2998 > 100 µM | OVCAR-3 > 100 µM | SW-620 > 100 µM | UO-31 > 100 µM | MOLT-4 51.8 µM | NCI-H522 > 100 µM | RPMI-8226 52.2 µM
> 100 µM: HCT-15

O=C(Nc1cc2c(=O)oc3ccccc3c2oc1=O)c1cccnc1
inactive: IGROV-1 > 100 µM | CCRF-CEM > 100 µM | K562 > 100 µM | U-251 35.6 µM | MDA-MB-435 > 100 µM | PC-3 > 100 µM | OVCAR-8 45 µM | OVCAR-4 > 100 µM | MDA-N > 100 µM | ACHN 50 µM | SK-MEL-5 > 100 µM | A549 > 100 µM | 786-0 > 100 µM | UACC-62 > 100 µM | SNB-75 62.4 µM | Malme-3M > 100 µM | M14 79.6 µM | NCI-H23 > 100 µM | T47D > 100 µM | NCI/ADR-RES > 100 µM | SR 78.5 µM | UACC-257 > 100 µM | RXF 393 > 100 µM | DU-145 > 100 µM | SN12C > 100 µM | HT-29 > 100 µM | LOX IMVI > 100 µM | MCF7 > 100 µM | HCT-116 > 100 µM | BT-549 > 100 µM | CAKI-1 > 100 µM | SF-295 > 100 µM | OVCAR-5 > 100 µM | MDA-MB-231 > 100 µM | TK-10 > 100 µM | SK-OV-3 > 100 µM | NCI-H226 > 100 µM | SNB-19 73.5 µM | HL-60 48 µM | NCI-H460 > 100 µM | COLO 205 > 100 µM | SK-MEL-2 83.2 µM | SK-MEL-28 > 100 µM | EKVX > 100 µM | KM12 > 100 µM | HOP-92 > 100 µM | SF-539 > 100 µM | HCC 2998 > 100 µM | OVCAR-3 > 100 µM | SW-620 > 100 µM | UO-31 > 100 µM | MOLT-4 > 100 µM | NCI-H522 > 100 µM
> 100 µM: HCT-15

CNC(=O)OCc1cnc([N+](=O)[O-])n1C
inactive: IGROV-1 > 100 µM | CCRF-CEM > 100 µM | K562 > 100 µM | U-251 > 100 µM | MDA-MB-435 > 100 µM | PC-3 > 100 µM | OVCAR-8 > 100 µM | OVCAR-4 > 100 µM | MDA-N > 100 µM | ACHN > 100 µM | SK-MEL-5 > 100 µM | A549 > 100 µM | 786-0 > 100 µM | SNB-75 > 100 µM | Malme-3M > 100 µM | NCI-H23 > 100 µM | NCI/ADR-RES > 100 µM | SR > 100 µM | UACC-257 > 100 µM | RXF 393 > 100 µM | DU-145 > 100 µM | SN12C > 100 µM | HT-29 > 100 µM | LOX IMVI > 100 µM | MCF7 > 100 µM | HCT-116 > 100 µM | BT-549 > 100 µM | HOP-62 > 100 µM | CAKI-1 > 100 µM | SF-295 > 100 µM | SF-268 > 100 µM | OVCAR-5 > 100 µM | MDA-MB-231 > 100 µM | TK-10 > 100 µM | NCI-H226 > 100 µM | Hs-578T > 100 µM | HL-60 > 100 µM | NCI-H460 > 100 µM | COLO 205 > 100 µM | A498 > 100 µM | SK-MEL-2 > 100 µM | SK-MEL-28 > 100 µM | EKVX > 100 µM | KM12 > 100 µM | HOP-92 > 100 µM | SF-539 > 100 µM | HCC 2998 > 100 µM | OVCAR-3 > 100 µM | SW-620 > 100 µM | UO-31 > 100 µM | MOLT-4 > 100 µM | NCI-H522 > 100 µM | RPMI-8226 > 100 µM
> 100 µM: HCT-15
